Reference: ChEMBL document CHEMBL1149842, “Purine alkaloids from the South China Sea gorgonian Subergorgia suberosa” (J Nat Prod, 2008)
Values after ≈ are worked out from the molar mass of the structure shown.

Test system: MDA-MB-231
Assay: Cytotoxicity against human MDA-MB-231 cells by MTT assay
Type: functional, cell-based

## C[C@H]1CC[C@H]2[C@@H]3CC(=O)[C@H](Cn4c(O)nc5c(O)ncnc54)[C@@]13CC2(C)C
  IC50: 8.87 µg/mL (≈ 23.9 µM)
